Structures can show the parent of a compound that is named as a salt.

The first experiment relates to TNF-α (TNF-alpha) production in human PBMC (peripheral blood mononuclear cells). The experiment can be described thus: Inhibition of TNF-alpha production in human PBMC assay (MSD technology). It counts as cell-based. As to conditions: Homo sapiens, PBMC, LPS stimulated, measured and/or mean of n measurements, read-out: PBMC pIC50 (MSD assay), inhibition of TNF-α production (converted). As for the experimental part: A 96-well plate (96 MicroWell™ Plates Nunclon™Δ-High Flange Design, Fisher Scientific UK, Bishop Meadow Road, Loughborough LE 11 5 RG, Leicestershire, UK) is prepared by initially adding to column 1 ca. 10 mM of test compound dissolved in DMSO. […] The compound is further diluted with DMSO into columns 2 to 9 by 8 successive 3-fold dilutions using the Biomek® FX Laboratory Automation Workstation (Beckman Coulter, Inc., 4300 N. Harbor Boulevard, P.O. Box 3100, Fullerton, Calif. 92834-3100, USA). Column 10 is used as a DMSO negative control (High Signal, 0% response), whilst column 11, which contains 10 mM of the PDE4 inhibitor roflumilast, is used as a positive control (Low Signal, 100% response). About 1 μl (about 1 ul) of compound is transferred to the compound plate using the Biomek® FX.
PBMC cells (peripheral blood mononuclear cells) are prepared from heparinised human blood (using 1% v/v Heparin Sodium 10001 U/ml Endotoxin Free, Leo Laboratories Ltd., Cashel Road, Dublin 12. Ireland, Cat No: PL0043/0149) from normal volunteers using the Accuspin™ System-Histopaque®-1077 essentially (Sigma-Aldrich Company Ltd., The Old Brickyard New Rd, Gillingham, Dorset SP8 4XT, UK). About 20 ml of blood is overlaid onto 15 ml Histopaque® in Accuspin™ tubes. The tube is then centrifuged at about 800 g for ca. 20 minutes. The cells are collected from the interface, washed by centrifugation (ca. 1300 g, ca. 10 minutes) and resuspended in RPMI1640 medium (Low endotoxin RPMI1640 medium, Cat No: 31870-025, Invitrogen Corporation Invitrogen Ltd, 3 Fountain Drive, Inchinnan Business Park, Paisley PA4 9RF, UK) containing 10% foetal calf serum, 1% L-glutamine (Invitrogen Corporation, Cat No: 25030024) and 1% penicillin/streptomycin (Invitrogen Corporation, Cat No: 15140-122). Viable cells are counted by trypan blue staining and diluted to 1×10^6 viable cells/ml. About 50 μl (about 50 ul) of diluted cells and about 75 μl (about 75 ul) of LPS (ca. 1 ng/ml final; Sigma Cat No: L-6386) are added to the compound plate, which is then incubated at 37° C., 5% CO2, for 20 hours.
The supernatant is removed and the concentrations of TNF-α are determined by electrochemiluminescence assay using the Meso Scale Discovery (MSD) technology (Meso Scale Discovery, 9238 Gaither Road, Gaithersburg, Md. 20877, USA). See the “TNF-α (TNF-alpha) MSD Assay” described below for typical details.
For the following Examples, which are compounds of formula (I) or salts thereof, and generally when using the one of the above assays, or a generally similar or generally analogous assay, the measured and/or mean pIC50 values for inhibition of TNF-α (TNF-alpha) production in PBMCs are generally as follows (subject to a possibly-large variability or error):
Using the Biomek FX, 25 μl (25 ul) of MSD Human Serum Cytokine Assay Diluent (Meso Scale Discovery, 9238 Gaither Road, Gaithersburg, Md. 20877) is added to a 96-well High-Bind MSD plate pre-coated with anti-hTNF alpha capture antibody (MA6000) and then incubated for 24 hours at 4° C. to prevent non-specific binding. About 20 μl (ul) of supernatant from the PBMC plate or about 40 μl (ul) of supernatant from the whole blood (WB) plate are then transferred from columns 1-11 to columns 1-11 of the MSD plate using the Biomek FX. About 20 μl (ul) of TNF-α standard (Cat No. 210-TA; R&D Systems Inc., 614 McKinley Place NE, Minneapolis, Minn. 55413, USA) are added to column 12 of the MSD plate to generate a standard calibration curve (about 0 to 30000 pg/ml final).
For the Whole Blood assay, plates are washed after 2 hours shaking with a Skanwasher 300 version B (Skatron Instruments AS. PO Box 8, N-3401 Lier, Norway). About 40 μl (ul) of diluted sulfo-TAG antibody (ca. […] final) is added, the plates are shaken at room temperature for 1 hours, and the plates washed again as above. About 150 μl (ul) of Read Buffer T (2×) is added to the plates, which are then read on a MSD Sector 6000. […]
`CCc1nc2c(cnn2CC)c(NC2CCOCC2)c1CNC(=O)c1ccc(CCCCOCCCCN(C)CCO)cc1` [Example 19, formate salt of N-{[1,6-diethyl-4-(tetrahydro-2H-pyran-4-ylamino)-1H-pyrazolo[3,4-b]pyridin-5-yl]methyl}-4-[4-({4-[(2-hydroxyethyl)(methyl)amino]butyl}oxy)butyl]benzamide]: the IC50 was roughly 0.251 nM.
As to `CCc1nc2c(cnn2CC)c(NC2CCOCC2)c1CNC(=O)c1ccc(NC(=O)CCCCCCCN(C)CCO)cc1` [Example 1A1, N-{[1,6-Diethyl-4-(tetrahydro-2H-pyran-4-ylamino)-1H-pyrazolo[3,4-b]pyridin-5-yl]methyl}-4-({8-[(2-hydroxyethyl)(methyl)amino]octanoyl}amino)benzamide dihydrochloride], the IC50 is roughly 0.501 nM.
Same read-out and setting: then `CCn1ncc2c(NC3CCOCC3)c(CNC(=O)c3ccc(NC(=O)CCCCCCCN(C)CCO)cc3)cnc21` [Example 26, Formate salt of N-{[1-ethyl-4-(tetrahydro-2H-pyran-4-ylamino)-1H-pyrazolo[3,4-b]pyridin-5-yl]methyl}-4-({8-[(2-hydroxyethyl)(methyl)amino]octanoyl}amino)benzamide], with roughly 15.8 nM.

Still in this experiment, the particulars now being: LPS stimulated, measured and/or mean of n measurements.
In the case of `CCc1nc2c(cnn2CC)c(NC2CCOCC2)c1CNC(=O)c1ccc(NC(=O)CCCCCCCN(C)CCO)cc1` [Example 1B, N-{[1,6-diethyl-4-(tetrahydro-2H-pyran-4-ylamino)-1H-pyrazolo[3,4-b]pyridin-5-yl]methyl}-4-({8-[(2-hydroxyethyl)(methyl)amino]octanoyl}amino)benzamide], the “PBMC pIC50 (MSD assay), inhibition of TNF-α production” value is on record as “about 9.2 (n = 29)”.
Same read-out and setting: then `CCc1nc2c(cnn2CC)c(NC2CCN(C(N)=O)CC2)c1CNC(=O)c1ccc(NC(=O)CCCCCCCN(C)CCO)cc1.O=C(O)C(F)(F)F` [Example 9, 4-({1,6-diethyl-5-[({[4-({8-[(2-hydroxyethyl)(methyl)amino]octanoyl}amino)phenyl]carbonyl}amino)methyl]-1H-pyrazolo[3,4-b]pyridin-4-yl}amino)-1-piperidinecarboxamide trifluoroacetate (salt)], with “about 8.4 (n = 4)”; and `CCc1nc2c(cnn2CC)c(NC2CCN(C(N)=O)CC2)c1CNC(=O)c1ccc(CCCCOCCCCN2CCOCC2)cc1` [Example 23A, 4-({1,6-diethyl-5-[({[4-(4-{[4-(4-morpholinyl)butyl]oxy}butyl)phenyl]carbonyl}amino)methyl]-1H-pyrazolo[3,4-b]pyridin-4-yl}amino)-1-piperidinecarboxamide], with “about 9.1 (n = 8)”.
